Test results from patent US9427428B2, “Benzimidazole-imidazole derivatives” (Janssen Sciences Ireland UC, priority 2009, dated 2016).

Columns and labels:
[1] = system: HCV type 1b replicon (Huh-7 luc/neo cells); test: HCV replicon assay, stable transfection (Huh-Luc, luciferase); type: cell-based; settings: Hepatitis C virus, Huh-7, 72 h, three days incubation, average of all tests
Excerpt: The compounds of formula (I) were examined for inhibitory activity in the HCV replicon. This cellular assay is based on a bicistronic expression construct, as described by Lohmann et al. (Science (1999) 285: 110-113; Journal of Virology (2003) 77: 3007-3019) with modifications described by Krieger et al. (Journal of Virology (2001) 75: 4614-4624), and Lohmann et al. (Journal of Virology (2003) 77: 3007-3019) for genotype 1b and by Yi et al. (Journal of Virology (2004) 78: 7904-7915) for genotype 1a, in a multi-target screening strategy.
The method was as follows. The assay utilized the stably transfected cell line Huh-7 luc/neo (hereafter referred to as Huh-Luc). This cell line harbors an RNA encoding a bicistronic expression construct comprising the wild type NS3-NS5B regions of HCV type 1b translated from an Internal Ribosome Entry Site (IRES) from encephalomyocarditis virus (EMCV), preceded by a reporter portion (FfL-luciferase), and a selectable marker portion (neoR, neomycine phosphotransferase). The construct is flanked by 5′ and 3′ NTRs (non-translated regions) from HCV type 1b. Continued culture of the replicon cells in the presence of G418 (neoR) is dependent on the replication of the HCV RNA. The stably transfected replicon cells that replicate HCV RNA autonomously and to high levels, encoding inter alia luciferase, were used for screening the antiviral compounds.
The replicon cells were plated in 384 well plates in the presence of the test and control compounds which were added in various concentrations. Following an incubation of three days, HCV replication was measured by assaying luciferase activity (using standard luciferase assay substrates and reagents and a Perkin Elmer ViewLux™ ultraHTS microplate imager). Replicon cells in the control cultures have high luciferase expression in the absence of any inhibitor. The inhibitory activity of the compound was monitored on the Huh-Luc cells, enabling a dose-response curve for each test compound. EC50 values were then calculated, which represent the amount of compound required to decrease the level of detected luciferase activity by 50%, or more specifically, to reduce the ability of the genetically linked HCV replicon RNA to replicate.
Where a compound of formula (I) was tested more than once in the replicon assay, the average of all test results is given in this Table 2.

[2] = system: HCV genotype 1a H77 replicon (Huh-7 lunet cells); test: HCV replicon assay, transient transfection, genotype 1a; type: cell-based; settings: Hepatitis C virus, 48 h, genotype 1a H77, two days incubation, luciferase
Excerpt: (§1) In a transient set-up, a Huh-7 lunet hepatoma cell line was transiently transfected with an autonomously replicating RNA encoding a bi-cistronic expression construct. This construct comprises a firefly luciferase reporter gene preceding the NS3-NS5B subgenomic region of HCV (genotype 1a H77 or 1b Con1). Translation of the HCV subgenomic region is mediated by an internal ribosome entry site of encephalomyocarditis virus. The construct is furthermore flanked by 5′ and 3′ untranslated regions of HCV (genotype 1a H77 or 1b Con 1, respectively), which allow for replication of the RNA.
(§2) Cells were plated in 384 well plates in the presence of test and control compounds, which were added in various concentrations. Following an incubation of two days, replication of the HCV subgenomic replicon RNA was measured by assaying luciferase activity (using standard luciferase assay substrates and reagents and a Perkin Elmer ViewLux™ ultraHTS microplate imager). HCV subgenomic replicon containing cells in the control cultures have high luciferase expression in the absence of any inhibitor. The inhibitory activity of the compound was monitored, enabling a dose-response curve for each test compound. EC50 values were then calculated, which represent the amount of compound required to decrease the level of detected luciferase activity by 50%, or more specifically, to reduce the ability of the genetically linked HCV subgenomic RNA to replicate.
(§3) Where a compound of formula (I) was tested more than once in the transient replicon assay, the average of all test results is given in Table 3.

[3] = Counterscreen MT4-LTR-Luc; type: cell-based; settings: human
Excerpt: (§4) Counterscreen cell lines included a Huh-7 hepatoma cell line containing a human cytomegalovirus major immediate-early promoter-Luc construct (Huh7-CMV-Luc) and an MT4 T-cell line containing a long terminal repeat-Luc reporter (MT4-LTR-Luc).

[4] = system: HCV genotype 1b replicon NS5A Y93H; test: Transient HCV 1b replicon, NS5A mutant Y93H; type: cell-based; settings: Hepatitis C virus, read-out: EC50 Y93H
Excerpt: as §1
(§5) In addition to the wild-type constructs, site-directed mutations were introduced into the transient HCV genotype 1b replicon in the gene encoding for the non-structural protein 5A (NS5A). More precisely, amino acid residues 28, 30, 31 and 93 in NS5A were independently altered.
as §2

[5] = Counterscreen Huh7-CMV-Luc; type: cell-based; settings: human
Excerpt: as §4

[6] = system: HCV genotype 1b Con1 replicon (Huh-7 lunet cells); test: HCV replicon assay, transient transfection, genotype 1b; type: cell-based; settings: Hepatitis C virus, 48 h, genotype 1b Con1, two days incubation, luciferase
Excerpt: as §1, §2, §3

[7] = system: HCV genotype 1b replicon NS5A L28T; test: Transient HCV 1b replicon, NS5A mutant L28T; type: cell-based; settings: Hepatitis C virus, read-out: EC50 L28T
Excerpt: as §1, §5, §2

[8] = system: HCV genotype 1b replicon NS5A Y93C; test: Transient HCV 1b replicon, NS5A mutant Y93C; type: cell-based; settings: Hepatitis C virus, read-out: EC50 Y93C
Excerpt: as §1, §5, §2

[9] = system: HCV genotype 1b replicon NS5A L31M; test: Transient HCV 1b replicon, NS5A mutant L31M; type: cell-based; settings: Hepatitis C virus, read-out: EC50 L31M
Excerpt: as §1, §5, §2

[10] = system: HCV genotype 1b replicon NS5A L31F; test: Transient HCV 1b replicon, NS5A mutant L31F; type: cell-based; settings: Hepatitis C virus, read-out: EC50 L31F
Excerpt: as §1, §5, §2

[11] = system: HCV genotype 1b replicon NS5A R30H; test: Transient HCV 1b replicon, NS5A mutant R30H; type: cell-based; settings: Hepatitis C virus, read-out: EC50 R30H
Excerpt: as §1, §5, §2

[12] = system: HCV genotype 1b replicon NS5A L31V; test: Transient HCV 1b replicon, NS5A mutant L31V; type: cell-based; settings: Hepatitis C virus, read-out: EC50 L31V
Excerpt: as §1, §5, §2

[13] = Pharmacokinetic analysis after single oral administration, liver concentration; type: in vivo; settings: male Sprague-Dawley rats, 10 mg/kg oral, solution in PEG400
Protocol: Compounds were dosed orally as a solution in PEG400 to male Sprague-Dawley rats at a dose level of 10 mg/kg. At serial time points, after dosing, the animals were sacrificed and liver samples collected. All samples were analyzed using a qualified research LC-MS/MS method to determine the concentration of the tested compounds in liver. Non-compartmental analysis using the lin/log trapezoidal rule was performed using WinNonlin™ Professional (Version 5.2.1).

SMILES | EC50 [1] [nM] | EC50 [2] [nM] | CC50 [3] [nM] | EC50 [4] [nM] | CC50 [5] [nM] | EC50 [6] [nM] | EC50 [7] [nM] | EC50 [8] [nM] | EC50 [9] [nM] | EC50 [10] [nM] | EC50 [11] [nM] | EC50 [12] [nM] | Liver AUC [13] [ng·h/g]
CC[C@@H](C)[C@H](NC(=O)OC)C(=O)N1CCC[C@H]1c1ncc(-c2ccc3cc(-c4ccc5nc([C@@H]6CCCN6C(=O)[C@@H](NC(=O)OC)[C@H](C)CC)[nH]c5c4)ccc3c2)[nH]1 [Compound 19] | 0.003 | 0.471 | > 984 | 5.19 | > 984 | 0.002 |  |  |  |  |  |  | 
CC[C@H](C)[C@H](NC(=O)OC)C(=O)N1CCC[C@H]1c1ncc(-c2ccc3cc(-c4ccc5nc([C@@H]6CCCN6C(=O)[C@@H](NC(=O)OC)[C@@H](C)CC)[nH]c5c4)ccc3c2)[nH]1 [Compound 8] | 0.003 | 0.204 | > 984 | 0.587 | > 984 | 0.005 | 0.206 | < 0.013 | 0.258 | 0.016 | 0.116 | 0.311 | 50655
COC(=O)N[C@H](C(=O)N1CCC[C@H]1c1ncc(-c2ccc(-c3ccc4nc([C@@H]5CCCN5C(=O)[C@@H](NC(=O)OC)C(C)C)[nH]c4c3)cc2)[nH]1)C(C)C [Compound 1] | 0.058 |  | > 984 | 1.33 |  | 0.058 | 4.12 | 0.076 |  | 0.775 | 0.6 | 1.06 | 
COC(=O)N[C@@H](CC(C)C)C(=O)N1CCC[C@H]1c1ncc(-c2ccc3cc(-c4ccc5nc([C@@H]6CCCN6C(=O)[C@H](CC(C)C)NC(=O)OC)[nH]c5c4)ccc3c2)[nH]1 [Compound 7] | 0.005 | 0.989 | > 984 | 3.41 | > 984 | 0.003 |  |  |  |  |  |  | 
CC[C@H](C)[C@H](NC(=O)OC)C(=O)N1CCC[C@@H]1c1ncc(-c2ccc3cc(-c4ccc5[nH]c([C@@H]6CCCN6C(=O)[C@@H](NC(=O)OC)[C@@H](C)OC)nc5c4)ccc3c2)[nH]1 [Compound 21] | 2.2 | 482 | 9140 | 275 | 8160 | 2.9 |  |  |  |  |  |  | 
COC(=O)NC(C(=O)N1CCC[C@H]1c1ncc(-c2ccc3cc(-c4ccc5nc([C@@H]6CCCN6C(=O)C(NC(=O)OC)c6ccccc6)[nH]c5c4)ccc3c2)[nH]1)c1ccccc1 (mixture of isomers) [Compound 14] | 0.004 | 0.836 | > 984 | 0.093 | > 984 | 0.004 |  |  |  |  |  |  | 
COC(=O)N[C@H](C(=O)N1CCC[C@H]1c1ncc(-c2ccc(-c3ccc4nc([C@@H]5CCCN5C(=O)[C@@H](NC(=O)OC)[C@@H](C)OC)[nH]c4c3)cc2)[nH]1)[C@@H](C)OC [Compound 2] | 0.54 |  | > 984 | 2.88 | > 984 | 0.909 | 9.05 | 0.655 |  | 1.81 | 2.69 | 1.38 | 
COC(=O)N[C@H](C(=O)N1CCC[C@H]1c1ncc(-c2ccc3cc(-c4ccc5nc([C@@H]6CCCN6C(=O)[C@@H](NC(=O)OC)[C@@H](C)OC)[nH]c5c4)ccc3c2)[nH]1)[C@@H](C)OC [Compound 4] | 0.012 | 0.033 | > 984 | 0.034 | > 984 | 0.016 | 0.052 | 0.013 | 0.052 | 0.02 | 0.056 | 0.048 | 1539
COC(=O)N[C@H](C(=O)N1CCC[C@H]1c1ncc(-c2ccc3cc(-c4ccc5nc([C@@H]6CCCN6C(=O)[C@@H](NC(=O)OC)[C@@H](C)O)[nH]c5c4)ccc3c2)[nH]1)[C@@H](C)O [Compound 6] | 0.132 | 0.181 | > 984 | 1.01 | > 984 | 0.142 |  |  |  |  |  |  | 
COC(=O)N[C@H](C(=O)N1CCC[C@H]1c1ncc(-c2ccc3cc(-c4ccc5nc([C@@H]6CCCN6C(=O)[C@@H](NC(=O)OC)C6CC6)[nH]c5c4)ccc3c2)[nH]1)C1CC1 [Compound 5] | 0.039 |  | > 984 | 10.8 | > 984 | 0.058 |  |  |  |  |  |  | 
CC[C@H](C)[C@H](NC(=O)OC)C(=O)N1CCC[C@H]1c1nc2cc(-c3ccc4cc(-c5cnc([C@H]6CCCN6C(=O)[C@@H](NC(=O)OC)[C@@H](C)OC)[nH]5)ccc4c3)ccc2[nH]1 [Compound 20] | 2.3 | 324 | 9410 | 336 | 8160 | 4.1 |  |  |  |  |  |  | 
COCC[C@H](NC(=O)OC)C(=O)N1CCC[C@H]1c1ncc(-c2ccc3cc(-c4ccc5nc([C@@H]6CCCN6C(=O)[C@H](CCOC)NC(=O)OC)[nH]c5c4)ccc3c2)[nH]1 [Compound 10] | 0.029 |  | > 984 | 1.03 | > 984 | 0.057 |  |  |  |  |  |  | 
COC(=O)NC(C(=O)N1CCC[C@H]1c1ncc(-c2ccc3cc(-c4ccc5nc([C@@H]6CCCN6C(=O)C(NC(=O)OC)C6CCOCC6)[nH]c5c4)ccc3c2)[nH]1)C1CCOCC1 (mixture of isomers) [Compound 12] | 0.08 | 0.268 | > 984 | 0.275 | > 984 | 0.11 |  |  |  |  |  |  | 
COC(=O)N[C@H](C(=O)N1CCC[C@H]1c1ncc(-c2ccc3cc(-c4ccc5nc([C@@H]6CCCN6C(=O)[C@@H](NC(=O)OC)C6CCCC6)[nH]c5c4)ccc3c2)[nH]1)C1CCCC1 [Compound 15] | 0.003 | 0.277 | > 984 | 1.19 | > 984 | 0.003 |  |  |  |  |  |  | 
